Measured values: US7485623B2 (priority 2002, dated 2009)

Key:
[1] = Example 1: radioactivity and metabolites in breast tissue after percutaneous [3H]-labeled drug
Procedure: (§1) The patients received [^3H]-labeled drug applied directly on the affected breasts at specified intervals ranging from 12 hours to 7 days before surgery to excise diseased tissue. Breast tissue from three regions: the tumor, tissue immediately surrounding the tumor, and normal tissue, was excised and immediately frozen in liquid nitrogen. Additionally, plasma and urine samples were obtained at scheduled intervals and frozen until analysis.

[2] = system: estrogen receptors; details: in vitro; cited from earlier work
[3] = Example 3: plasma pharmacokinetics of 4-hydroxy tamoxifen gel in healthy premenopausal women; details: for AUC0-24, Mean ± SD / Cav = AUC0-24/24, Mean ± SD / tmax, Mean ± SD / Cmax, Mean ± SD / t1/2 (range): last administration; for Cmax, Mean ± SD: day 25 of second cycle
Procedure: Each participant applied the gel daily for the duration of two menstrual cycles.
At the end of a menstrual cycle, each patient received a single dose, after which serial blood samples were collected at 0, 0.5, 1, 1.5, 2, 3, 4, 6, 12, 18, 24, 36, 48, and 72 hours.
On the first day of the following menstruation, treatment, which consisted of daily application of the gel over two menstrual cycles, began. Blood samples were collected 24 hours following the morning application of gel on days 7, 20 and 25 of the first and second cycles. On the last day of administration, day 25 of the second menstrual cycle, serial blood samples were collected prior to application and at 0.5, 1, 1.5, 2, 3, 4, 6, 12, 18, 24, 36, 48, and 72 hours after application of the gel.

[4] = target: T1, estrone sulphatase (Homo sapiens, UniProt P08842); details: mammary cancer cell lines; cited from earlier work
T1 construct: estrone sulphatase activity in mammary cancer cell lines
T1 sequence (P08842 22-583): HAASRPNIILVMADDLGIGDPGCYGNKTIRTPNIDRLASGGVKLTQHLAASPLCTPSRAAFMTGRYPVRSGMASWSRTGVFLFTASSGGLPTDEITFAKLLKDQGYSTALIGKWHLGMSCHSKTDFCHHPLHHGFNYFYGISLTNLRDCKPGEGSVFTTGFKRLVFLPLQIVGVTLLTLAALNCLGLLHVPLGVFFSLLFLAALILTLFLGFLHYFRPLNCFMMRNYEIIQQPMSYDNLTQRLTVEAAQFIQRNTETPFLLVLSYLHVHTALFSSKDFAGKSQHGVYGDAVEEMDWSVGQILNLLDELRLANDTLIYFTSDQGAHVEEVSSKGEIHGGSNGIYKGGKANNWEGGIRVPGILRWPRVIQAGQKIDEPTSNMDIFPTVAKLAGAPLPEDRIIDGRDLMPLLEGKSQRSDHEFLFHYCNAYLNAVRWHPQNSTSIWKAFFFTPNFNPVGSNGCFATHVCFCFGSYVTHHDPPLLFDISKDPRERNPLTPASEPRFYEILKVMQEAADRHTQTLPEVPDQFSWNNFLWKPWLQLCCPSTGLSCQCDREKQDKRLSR

[5] = Example 1: radioactivity in blood and urine after percutaneous [3H]-labeled drug; details: for share of radioactivity in blood: 24 hours after percutaneous [3H]-4-hydroxy tamoxifen
Procedure: as §1

[6] = topical application
[7] = system: p53(−) normal human mammary epithelial cells; details: cited from earlier work
[8] = oral tamoxifen; cited from earlier work
[9] = system: breast density; details: cited from earlier work
[10] = Group 2 (0.5 mg/day gel), seventh day; Group 1 (oral tamoxifen), fifth day; cited from earlier work
[11] = system: rat liver; details: cited from earlier work
[12] = 12 hr after percutaneous trans-[3H]-4-hydroxy tamoxifen
[13] = 24 hr after percutaneous trans-[3H]-4-hydroxy tamoxifen
[14] = 36 hr after percutaneous trans-[3H]-4-hydroxy tamoxifen
[15] = Day 4 after percutaneous trans-[3H]-4-hydroxy tamoxifen
[16] = Day 7 after percutaneous trans-[3H]-4-hydroxy tamoxifen
[17] = 0.5 mg/day (n = 12), gel 20 mg/100 g
[18] = 1 mg/day (n = 8), gel 20 mg/100 g
[19] = 1 mg/day (n = 12), gel 57 mg/100 g
[20] = 2 mg/day (n = 12), gel 57 mg/100 g

## CC/C(=C(\c1ccc(O)cc1)c1ccc(OCCN(C)C)cc1)c1ccccc1 [4-hydroxy tamoxifen, 1-[4-(2-N-dimethylaminoethoxy)phenyl]-1-(4-hydroxyphenyl)-2-phenylbut-1-(Z)-ene]
[1]; [12]
  % Metabolites in Breast Tissue: 97%
[1]; [13]
  % Metabolites in Breast Tissue: 94%
[1]; [14]
  % Metabolites in Breast Tissue: 78%
[1]; [15]
  % Metabolites in Breast Tissue: 70%
[1]; [16]
  % Metabolites in Breast Tissue: 65%
[1]; cytosolic and nuclear fractions
  metabolism in intracellular sites of breast tissue: remained unmetabolized except for limited isomerization from the trans to the cis form
[1]; percutaneous application
  subcellular distribution in breast tissue: concentrated predominantly in the cytosolic and nuclear fractions of breast tissue
[1]; percutaneous application of [3H]-labeled drug
  retention in the breast: approximately 4 days
[2]
  binding affinity for estrogen receptors, compared with estradiol: a binding affinity similar to estradiol
  potency as binding affinity to estrogen receptors, compared with tamoxifen: more potency than tamoxifen
[3]; [17]
  AUC0-24, Mean ± SD: 0.2563 ng·h/mL
  Cav = AUC0-24/24, Mean ± SD: 0.0107 ± 0.0085 ng/mL
  tmax, Mean ± SD: 40 ± 81 h
  Cmax, Mean ± SD: 0.017 ± 0.0085 ng/mL
[3]; [18]
  AUC0-24, Mean ± SD: 0.3009 ng·h/mL
  Cav = AUC0-24/24, Mean ± SD: 0.0125 ± 0.0079 ng/mL
  tmax, Mean ± SD: 24 ± 18 h
  Cmax, Mean ± SD: 0.021 ± 0.014 ng/mL
[3]; [19]
  AUC0-24, Mean ± SD: 0.619 ± 0.466 ng·h/mL
  Cav = AUC0-24/24, Mean ± SD: 0.0258 ± 0.0194 ng/mL
  t1/2 (range): (58-118) hr
  tmax, Mean ± SD: 12.8 ± 14.9 h
  Cmax, Mean ± SD: 0.0351 ± 0.0224 ng/mL
[3]; [20]
  AUC0-24, Mean ± SD: 0.998 ± 0.653 ng·h/mL
  Cav = AUC0-24/24, Mean ± SD: 0.0416 ± 0.0272 ng/mL
  t1/2 (range): (49-101) hr
  tmax, Mean ± SD: 11.8 ± 12.3 h
  Cmax, Mean ± SD: 0.0516 ± 0.0317 ng/mL
[3]; in vivo
  detectability in plasma after the last gel application: remained detectable 72 hours after the last gel application
[3]; topical application, 0.5, 1, and 2 mg
  exposure versus dose: increases with dose
[4]
  effect on estrone sulphatase activity: significant inhibitory effect
[5]
  share of radioactivity in blood: 68%
[5]; percutaneous administration
  urinary elimination compared to percutaneous tamoxifen: Peak urinary elimination occurred at a later time
[6]
  systemic effects: no detectable laboratory or clinical evidence of systemic effects

## CC(C)(c1ccc(O)cc1)c1ccc(O)cc1 [Bisphenol]
[1]; [12]
  % Metabolites in Breast Tissue: 1%
[1]; [13]
  % Metabolites in Breast Tissue: 2%
[1]; [14]
  % Metabolites in Breast Tissue: 3%
[1]; [15]
  % Metabolites in Breast Tissue: 8%
[1]; [16]
  % Metabolites in Breast Tissue: 8%
[5]
  share of radioactivity in blood: 11%

## CC/C(=C(\c1ccccc1)c1ccc(OCCNC)cc1)c1ccccc1 [N-Desmethyl tamoxifen]
[1]; [14]
  % Metabolites in Breast Tissue: <1%
[1]; [15]
  % Metabolites in Breast Tissue: <1%
[1]; [16]
  % Metabolites in Breast Tissue: 3-4%

## CCC(=C(c1ccc(O)cc1)c1ccc(OCCNC)cc1)c1ccccc1 [N-Desmethyl-4-Hydroxy Tamoxifen]
[1]; [12]
  % Metabolites in Breast Tissue: 2%
[1]; [13]
  % Metabolites in Breast Tissue: 4%
[1]; [14]
  % Metabolites in Breast Tissue: 14%
[1]; [15]
  % Metabolites in Breast Tissue: 20%
[1]; [16]
  % Metabolites in Breast Tissue: 16%
[5]
  share of radioactivity in blood: 18%

## CC/C(=C(\c1ccc(O)cc1)c1ccc(OCCN(C)C)cc1)c1ccccc1 [Trans 4-hydroxy tamoxifen]
[1]; day 7
  percentage of radioactivity in breast tissue as isomer of 4-hydroxy tamoxifen: 32%

## CC/C(=C(\c1ccccc1)c1ccc(OCCN(C)C)cc1)c1ccccc1 [[^3H]-tamoxifen, reference compound]
[5]; percutaneous application
  time of plateau of radioactivity in blood: 2 days

## CC/C(=C(\c1ccccc1)c1ccc(OCCN(C)C)cc1)c1ccccc1 [tamoxifen]
[7]
  initiation of apoptosis: initiates apoptosis
[8]
  side effects reported by patients: hot flashes, vaginal discharge, depression, amenorrhea, and nausea
[9]; 20 mg/day after surgery for breast cancer (Son et al.)
  women with decreased breast parenchyma: 59.8%
[9]; contralateral breasts of postmenopausal breast cancer patients, 20 mg/day
  change of mammographic pattern: significant change toward a less dense mammographic pattern
[9]; premenopausal women, 20 mg/day (Son et al.)
  decrease of breast parenchyma in premenopausal women: 87%
[10]
  side effects reported by one person: hot flashes and mild vaginitis
[4]
  effect on estrone sulphatase activity: little or no effect
[11]
  rat liver carcinogenicity: potent rat liver carcinogen
